Assay results: US20260152491A1, “PESTICIDALLY ACTIVE HETEROCYCLIC DERIVATIVES WITH SULFUR CONTAINING SUBSTITUENTS” (SYNGENTA CROP PROTECTION AG, priority 2022, published 2026)

Experiments:
Format in all cases: in vivo
Chilo suppressalis = test: Activity against Chilo suppressalis (striped rice stemborer), artificial diet in 24-well plates; conditions: 144 h, application rate 200 ppm, L2 larvae, 6 days after infestation, in comparison to untreated samples, read-out: control (at least one of mortality, anti-feedant effect, growth inhibition)
Experimental: Example B1: Activity Against Chilo suppressalis (Striped Rice Stemborer)
24-well microtiter plates with artificial diet were treated with aqueous test solutions prepared from 10'000 ppm DMSO stock solutions by pipetting. After drying, the plates were infested with L2 larvae (6-8 per well). The samples were assessed for mortality, anti-feeding effect, and growth inhibition in comparison to untreated samples 6 days after infestation. Control of Chilo suppressalis by a test sample is given when at least one of the categories mortality, anti-feedant effect, and growth inhibition is higher than the untreated sample.

Diabrotica balteata = test: Activity against Diabrotica balteata (corn root worm), maize sprouts sprayed; conditions: 96 h, application rate 200 ppm, L2 larvae, 4 days after infestation, in comparison to untreated samples, read-out: effect in at least one of the two categories (mortality or growth inhibition)
Experimental: Example B2: Activity Against Diabrotica Balteata (Corn Root Worm)
Maize sprouts placed onto an agar layer in 24-well microtiter plates were treated with aqueous test solutions prepared from 10'000 ppm DMSO stock solutions by spraying. After drying, the plates were infested with L2 larvae (6 to 10 per well). The samples were assessed for mortality and growth inhibition in comparison to untreated samples 4 days after infestation.

Euschistus heros = test: Activity against Euschistus heros (neotropical brown stink bug), soybean leaves sprayed; conditions: 120 h, application rate 200 ppm, N2 nymphs, 5 days after infestation, in comparison to untreated samples, read-out: effect in at least one of the two categories (mortality or growth inhibition)
Experimental: Example B3: Activity Against Euschistus heros (Neotropical Brown Stink Bug)
Soybean leaves on agar in 24-well microtiter plates were sprayed with aqueous test solutions prepared from 10'000 ppm DMSO stock solutions. After drying the leaves were infested with N2 nymphs. The samples were assessed for mortality and growth inhibition in comparison to untreated samples 5 days after infestation.

Myzus persicae [1] = test: Activity against Myzus persicae (green peach aphid), feeding/contact activity, sunflower leaf discs; conditions: foliar, 144 h, application rate 200 ppm, aphid population of mixed ages, 6 days after infestation
Experimental: Example B4: Activity Against Myzus persicae (Green Peach Aphid) Feeding/Contact Activity
Sunflower leaf discs were placed onto agar in a 24-well microtiter plate and sprayed with aqueous test solutions prepared from 10'000 ppm DMSO stock solutions. After drying, the leaf discs were infested with an aphid population of mixed ages. The samples were assessed for mortality 6 days after infestation.

Myzus persicae [2] = test: Activity against Myzus persicae (green peach aphid), systemic activity, pea seedling roots in test solution; conditions: 144 h, test rate 24 ppm, aphid population of mixed ages, 6 days after placing seedlings into test solutions
Experimental: Example B5: Activity Against Myzus persicae (Green Peach Aphid) Systemic Activity
Roots of pea seedlings infested with an aphid population of mixed ages were placed directly into aqueous test solutions prepared from 10'000 DMSO stock solutions. The samples were assessed for mortality 6 days after placing seedlings into test solutions.

Plutella xylostella = test: Activity against Plutella xylostella (diamond back moth), artificial diet in 24-well plates; conditions: 192 h, application rate 200 ppm, eggs, 8 days after infestation, in comparison to untreated samples, read-out: effect in at least one of the two categories (mortality or growth inhibition)
Experimental: Example B6: Activity Against Plutella xylostella (Diamond Back Moth)
24-well microtiter plates with artificial diet were treated with aqueous test solutions prepared from 10'000 ppm DMSO stock solutions by pipetting. After drying, Plutella eggs were pipetted through a plastic stencil onto a gel blotting paper and the plate was closed with it. The samples were assessed for mortality and growth inhibition in comparison to untreated samples 8 days after infestation.

Spodoptera littoralis = test: Activity against Spodoptera littoralis (Egyptian cotton leaf worm), cotton leaf discs sprayed; conditions: foliar, 72 h, application rate 200 ppm, L1 larvae, 3 days after infestation, in comparison to untreated samples, read-out: control (at least one of mortality, anti-feedant effect, growth inhibition)
Experimental: Example B7: Activity Against Spodoptera littoralis (Egyptian Cotton Leaf Worm)
Cotton leaf discs were placed onto agar in 24-well microtiter plates and sprayed with aqueous test solutions prepared from 10'000 ppm DMSO stock solutions. After drying the leaf discs were infested with five L1 larvae. The samples were assessed for mortality, anti-feeding effect, and growth inhibition in comparison to untreated samples 3 days after infestation. Control of Spodoptera littoralis by a test sample is given when at least one of the categories mortality, anti-feedant effect, and growth inhibition is higher than the untreated sample.

CCS(=O)(=O)c1cc(C2(C#N)CC2)cnc1-c1coc2cc(Cl)ccc2c1=O [P.1, 1-[6-(7-chloro-4-oxo-chromen-3-yl)-5-ethylsulfonyl-3-pyridyl]-cyclopropanecarbonitrile]
≥ 80%: percent control (mortality, anti-feedant effect or growth inhibition) at 200 ppm (Chilo suppressalis) | percent effect (mortality or growth inhibition) at 200 ppm (Diabrotica balteata) | percent effect (mortality or growth inhibition) at 200 ppm (Euschistus heros) | mortality at 200 ppm (Myzus persicae [1]) | mortality at 24 ppm (Myzus persicae [2]) | percent effect (mortality or growth inhibition) at 200 ppm (Plutella xylostella) | percent control (mortality, anti-feedant effect or growth inhibition) at 200 ppm (Spodoptera littoralis)

CCS(=O)(=O)c1cc(C2(C#N)CC2)cnc1-c1coc2cc(I)ccc2c1=O [P.2, 1-[5-ethylsulfonyl-6-(7-iodo-4-oxo-chromen-3-yl)-3-pyridyl]cyclopropanecarbonitrile]
≥ 80%: percent control (mortality, anti-feedant effect or growth inhibition) at 200 ppm (Chilo suppressalis) | percent effect (mortality or growth inhibition) at 200 ppm (Diabrotica balteata) | percent effect (mortality or growth inhibition) at 200 ppm (Euschistus heros) | mortality at 200 ppm (Myzus persicae [1]) | percent effect (mortality or growth inhibition) at 200 ppm (Plutella xylostella) | percent control (mortality, anti-feedant effect or growth inhibition) at 200 ppm (Spodoptera littoralis)

CCS(=O)(=O)c1cc(C2(C#N)CC2)cnc1-c1coc2cc(Br)ccc2c1=O [P.3, 1-[6-(7-bromo-4-oxo-chromen-3-yl)-5-ethylsulfonyl-3-pyridyl]-cyclopropanecarbonitrile]
≥ 80%: percent control (mortality, anti-feedant effect or growth inhibition) at 200 ppm (Chilo suppressalis) | percent effect (mortality or growth inhibition) at 200 ppm (Diabrotica balteata) | percent effect (mortality or growth inhibition) at 200 ppm (Euschistus heros) | percent effect (mortality or growth inhibition) at 200 ppm (Plutella xylostella) | percent control (mortality, anti-feedant effect or growth inhibition) at 200 ppm (Spodoptera littoralis)

CCS(=O)(=O)c1cc(C2(C#N)CC2)cnc1-c1coc2cc(F)ccc2c1=O [P.4, 1-[5-ethylsulfonyl-6-(7-fluoro-4-oxo-chromen-3-yl)-3-pyridyl]cyclopropane-carbonitrile]
≥ 80%: percent control (mortality, anti-feedant effect or growth inhibition) at 200 ppm (Chilo suppressalis) | percent effect (mortality or growth inhibition) at 200 ppm (Diabrotica balteata) | percent effect (mortality or growth inhibition) at 200 ppm (Euschistus heros) | mortality at 24 ppm (Myzus persicae [2]) | percent effect (mortality or growth inhibition) at 200 ppm (Plutella xylostella) | percent control (mortality, anti-feedant effect or growth inhibition) at 200 ppm (Spodoptera littoralis)

CCS(=O)(=O)c1cc(C2(C#N)CC2)cnc1-c1coc2cc(C3CC3)ccc2c1=O [P.5, 1-[6-(7-cyclopropyl-4-oxo-chromen-3-yl)-5-ethylsulfonyl-3-pyridyl]-cyclopropane-carbonitrile]
≥ 80%: percent control (mortality, anti-feedant effect or growth inhibition) at 200 ppm (Chilo suppressalis) | percent effect (mortality or growth inhibition) at 200 ppm (Diabrotica balteata) | percent effect (mortality or growth inhibition) at 200 ppm (Euschistus heros) | percent effect (mortality or growth inhibition) at 200 ppm (Plutella xylostella) | percent control (mortality, anti-feedant effect or growth inhibition) at 200 ppm (Spodoptera littoralis)

CCS(=O)(=O)c1cc(C2(C#N)CC2)cnc1-c1coc2cc(-c3ccc(F)cc3)ccc2c1=O [P.6, 1-[5-ethylsulfonyl-6-[7-(4-fluorophenyl)-4-oxo-chromen-3-yl]-3-pyridyl]cyclopropane-carbonitrile]
≥ 80%: percent effect (mortality or growth inhibition) at 200 ppm (Diabrotica balteata) | percent effect (mortality or growth inhibition) at 200 ppm (Plutella xylostella) | percent control (mortality, anti-feedant effect or growth inhibition) at 200 ppm (Spodoptera littoralis)

CCS(=O)(=O)c1cc(C2(C#N)CC2)cnc1-c1coc2cc(-c3cc(F)cc(F)c3)ccc2c1=O [P.7, 1-[6-[7-(3,5-difluorophenyl)-4-oxo-chromen-3-yl]-5-ethylsulfonyl-3-pyridyl]-cyclopropanecarbonitrile]
≥ 80%: percent control (mortality, anti-feedant effect or growth inhibition) at 200 ppm (Chilo suppressalis) | percent effect (mortality or growth inhibition) at 200 ppm (Diabrotica balteata) | percent effect (mortality or growth inhibition) at 200 ppm (Euschistus heros) | percent effect (mortality or growth inhibition) at 200 ppm (Plutella xylostella) | percent control (mortality, anti-feedant effect or growth inhibition) at 200 ppm (Spodoptera littoralis)
